Experiment [1] has as its target T1, Farnesyl-protein transferase (FTase) from bovine brain (Bos taurus, UniProt P29702+P49355).
T1 construct: Farnesyl-protein transferase (FTase) from bovine brain; from tissue; host or cells: bovine brain, partially purified (DEAE-Sephacel, N-octyl agarose, Mono Q HPLC)
Description: In vitro inhibition of Ras Farnesyl Transferase. In kind it is biochemical. Conditions: Ras-CVLS 3.5 μM, [3H]FPP 0.25 μM, partially purified bovine brain FTase; read-out: IC50 (concentration of compound which gives 50% inhibition of FTase). On the procedure:
In vitro inhibition of Ras Farnesyl Transferase […] Ras-CVLS at 3.5 μ[…], and the indicated compounds were incubated with this partially purified enzyme preparation. The FTase data presented below is a measurement of the ability of the test compound to inhibit Ras farnesylation in vitro. | *(IC50 is the concentration of compound which gives 50% inhibition o | FTase under the described assay conditions)

In experiment [2] the test system is Ras farnesylation in the v-ras cell line (Ha-ras p21). Description: In vivo ras farnesylation assay (v-ras cell line). In kind it is cell-based. The procedure: In vivo ras farnesylation assay
The cell line used in this assay was the v-ras line, which expressed vital Ha-ras p21. The assay was performed essentially as described in DeClue, J. E. et. al., Cancer Reasearch 51, 712-717, (1991). Cells in 10 cm dishes at 50-75% confluency were treated with the test compound (final concentration of solvent, methanol or dimethyl sulfoxide, was 0.1%). After 4 hours at 37° C., the cells were labelled in 3 ml methionine-free DMEM supplemeted with 10% regular DMEM, 2% fetal bovine serum and 400 μCi[^35 S] methionine (1000 Ci/mmol). After an additional 20 hours, the cells were lysed in 1 ml lysis buffer (1% NP40/20 nnM HEPES, pH 7.5/5 mM MgCl2 /1 mM DTT/10 μg/ml aprotinen/2 μg/ml leupeptin/2 μg/ml antipain/0.5 mM PMSF) and the lysates cleared by centrifugation at 100,000×g for 45 min. Aliqouts of lysates containing equal numbers of acid-precipitable counts were brought to 1 ml with IP buffer (lysis buffer lacking DTT) and immunoprecipitated with the ras-specific monoclonal antibody Y13-259 (Furth, M. E. et al., J. Virol. 43, 294-304, (1982)). Following a 2 hour antibody incubation at 4° C., 200 μl of a 25% suspension of protein A-Sepharose coated with rabbit anti rat IgG was added for 45 min. […]

The subject of another experiment is Ras farnesylation. The conditions noted are these: literature; cited from earlier work.

Consider `CC[C@H](C)[C@H](NC[C@@H](N)CS)C(=O)N[C@H](C(=O)N[C@@H](CCCO)C(=O)O)[C@@H](C)CC`, for which the IC50 in experiment [1] amounted to 24 nM.

Usually inhibition stands for the drop in the measured response relative to a control, in per cent. Read a high inhibition as a response far below the control. `CC[C@H](C)[C@H](NC[C@@H](NC[C@@H](N)CS)[C@@H](C)CC)C(=O)N[C@H]1CCOC1=O` [N-[2(S)-(2(R)-amino-3-mercaptopropylamino)-3(S)-methylpentyl]isoleucyl-homoserine lactone] came in with an inhibition at 100 µM in experiment [2] (at 100 μM test concentration, 4 hours then additional 20 hours with [35S]methionine) of 90%. The IC50 in experiment [1] came out at 950 nM.

Consider `CC[C@H](C)[C@H](NC[C@@H](NC[C@@H](N)CS)[C@@H](C)CC)C(=O)N[C@@H](CCO)C(=O)O` [N-[2(S)-(2(R)-amino-3-mercaptopropylamino)-3(S)-methylpentyl]isoleucyl-homoserine], for which the “Inhibition of Ras farnesylation” value in experiment [2] (result in words, test concentration not printed for this compound) is listed as “No Inhibition”. Besides, the IC50 in experiment [1] was determined as 12 nM.

Take `CC[C@H](C)[C@H](NC[C@@H](N)CS)C(=O)N[C@H](C(=O)N[C@H]1CCCOC1=O)[C@@H](C)CC` [N-[N'-(2(R)-amino-3-mercaptopropyl)isoleucyl-isoleucyl]-3(S)-aminotetrahydropyran-2-one]: the IC50 in experiment [1] was 470 nM.

With `CC[C@H](C)C(=O)O[C@H]1CCC=C2C=C[C@H](C)[C@H](CC[C@@H]3C[C@@H](O)CC(=O)O3)[C@H]21` [compactin], the “Inhibition of Ras farnesylation in vivo” value with Ras farnesylation is “Inhibition of Ras farnesylation in vivo has been demonstrated”.

As for `CC[C@H](C)C(=O)O[C@H]1C[C@@H](C)C=C2C=C[C@H](C)[C@H](CC[C@@H]3C[C@@H](O)CC(=O)O3)[C@H]21` [lovastatin], the “Inhibition of Ras farnesylation in vivo” value with Ras farnesylation is recorded as “Inhibition of Ras farnesylation in vivo has been demonstrated”.
